Columns and labels:
Format in all cases: in vivo
[1] = system: barnyard grass; assay: Test Example 1: weedkilling efficacy, preemergent weed treatment in the submerged state; A: barnyard grass; conditions: treatment dosage 252 g/ha
How it was run: (§1)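 Alluvial soil in Wagner pots flooded to 4 cm; barnyard grass, bulrush and oval-leafed pondweed seeds sown, then 2.5-leaf rice seedlings transplanted. Same day, emulsified compound diluted in water to set g/ha dosages and applied to water surface; greenhouse 25–30 °C, effect scored by criteria after 3 weeks.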

[2] = system: bulrush; assay: Test Example 1: weedkilling efficacy, preemergent weed treatment in the submerged state; B: bulrush; conditions: treatment dosage 252 g/ha
How it was run: as §1

[3] = system: oval-leafed pondweed; assay: Test Example 1: weedkilling efficacy, preemergent weed treatment in the submerged state; C: oval-leafed pondweed; conditions: treatment dosage 252 g/ha
How it was run: as §1

[4] = system: transplanted rice; assay: Test Example 1: preemergent weed treatment in the submerged state, effect on crop; a: transplanted rice; conditions: treatment dosage 252 g/ha
How it was run: as §1

[5] = system: barnyard grass; assay: Test Example 2: weedkilling efficacy, growth period weed treatment in the submerged state; A: barnyard grass; conditions: treatment dosage 252 g/ha
How it was run: (§2)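 First, alluvial soil in pots is flooded to 4 cm and mixed seed is sown. Next, plants grow in a greenhouse at 25 to 30° C until the 1-2 leaf stage. Then diluted emulsion is applied onto the water surface at the given g/ha rate, and injury is assessed after 3 weeks.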

[6] = system: bulrush; assay: Test Example 2: weedkilling efficacy, growth period weed treatment in the submerged state; B: bulrush; conditions: treatment dosage 252 g/ha
How it was run: as §2

[7] = system: crabgrass; assay: Test Example 3: weedkilling efficacy through soil treatment; D: crabgrass; conditions: treatment dosage 315 g/ha
How it was run: (§3)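 Crop and weed responses were judged three weeks after a uniform surface spray of the water-diluted emulsion at the given g/ha rate. Seeds sat beneath about 1.5 cm of sterilized diluvial soil, and boxes stood in a greenhouse at 25 to 30° C.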

[8] = system: green foxtail; assay: Test Example 3: weedkilling efficacy through soil treatment; E: green foxtail; conditions: treatment dosage 315 g/ha
How it was run: as §3

[9] = system: wild oat; assay: Test Example 3: weedkilling efficacy through soil treatment; G: wild oat; conditions: treatment dosage 315 g/ha
How it was run: as §3

[10] = system: black-grass; assay: Test Example 3: weedkilling efficacy through soil treatment; H: black-grass; conditions: treatment dosage 315 g/ha
How it was run: as §3

[11] = system: Italian ryegrass; assay: Test Example 3: weedkilling efficacy through soil treatment; I: Italian ryegrass; conditions: treatment dosage 315 g/ha
How it was run: as §3

[12] = system: Indian mallow; assay: Test Example 3: weedkilling efficacy through soil treatment; K: Indian mallow; conditions: treatment dosage 315 g/ha
How it was run: as §3

[13] = system: redroot pigweed; assay: Test Example 3: weedkilling efficacy through soil treatment; L: redroot pigweed; conditions: treatment dosage 315 g/ha
How it was run: as §3

[14] = system: fig-leafed goosefoot; assay: Test Example 3: weedkilling efficacy through soil treatment; M: fig-leafed goosefoot; conditions: treatment dosage 315 g/ha
How it was run: as §3

[15] = system: chickweed; assay: Test Example 3: weedkilling efficacy through soil treatment; N: chickweed; conditions: treatment dosage 315 g/ha
How it was run: as §3

[16] = system: birds-eye speedwell; assay: Test Example 3: weedkilling efficacy through soil treatment; p: birds-eye speedwell; conditions: treatment dosage 315 g/ha
How it was run: as §3

[17] = system: directly sown rice; assay: Test Example 3: soil treatment, effect on crop; b: directly sown rice; conditions: treatment dosage 315 g/ha
How it was run: as §3

[18] = system: corn; assay: Test Example 3: soil treatment, effect on crop; c: corn; conditions: treatment dosage 315 g/ha
How it was run: as §3

[19] = system: soybean; assay: Test Example 3: soil treatment, effect on crop; d: soybean; conditions: treatment dosage 315 g/ha
How it was run: as §3

[20] = system: wheat; assay: Test Example 3: soil treatment, effect on crop; e: wheat; conditions: treatment dosage 315 g/ha
How it was run: as §3

[21] = system: crabgrass; assay: Test Example 4: weedkilling efficacy by foliar treatment; D: crabgrass; conditions: treatment dosage 315 g/ha
How it was run: (§4)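 Seeds are spot-sown into sterilized diluvial soil and covered with about 1.5 cm of soil. After 14 days' greenhouse growth at 25 to 30° C, plants are sprayed on stems and leaves with diluted emulsion at the stated g/ha rate, then scored at 3 weeks.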

[22] = system: green foxtail; assay: Test Example 4: weedkilling efficacy by foliar treatment; E: green foxtail; conditions: treatment dosage 315 g/ha
How it was run: as §4

[23] = system: wild oat; assay: Test Example 4: weedkilling efficacy by foliar treatment; G: wild oat; conditions: treatment dosage 315 g/ha
How it was run: as §4

[24] = system: black-grass; assay: Test Example 4: weedkilling efficacy by foliar treatment; H: black-grass; conditions: treatment dosage 315 g/ha
How it was run: as §4

[25] = system: Italian ryegrass; assay: Test Example 4: weedkilling efficacy by foliar treatment; I: Italian ryegrass; conditions: treatment dosage 315 g/ha
How it was run: as §4

[26] = system: Indian mallow; assay: Test Example 4: weedkilling efficacy by foliar treatment; K: Indian mallow; conditions: treatment dosage 315 g/ha
How it was run: as §4

[27] = system: redroot pigweed; assay: Test Example 4: weedkilling efficacy by foliar treatment; L: redroot pigweed; conditions: treatment dosage 315 g/ha
How it was run: as §4

[28] = system: fig-leafed goosefoot; assay: Test Example 4: weedkilling efficacy by foliar treatment; M: fig-leafed goosefoot; conditions: treatment dosage 315 g/ha
How it was run: as §4

[29] = system: chickweed; assay: Test Example 4: weedkilling efficacy by foliar treatment; N: chickweed; conditions: treatment dosage 315 g/ha
How it was run: as §4

[30] = system: catchweed; assay: Test Example 4: weedkilling efficacy by foliar treatment; O: catchweed; conditions: treatment dosage 315 g/ha
How it was run: as §4

[31] = system: birds-eye speedwell; assay: Test Example 4: weedkilling efficacy by foliar treatment; p: birds-eye speedwell; conditions: treatment dosage 315 g/ha
How it was run: as §4

[32] = system: directly sown rice; assay: Test Example 4: foliar treatment, effect on crop; b: directly sown rice; conditions: treatment dosage 315 g/ha
How it was run: as §4

[33] = system: corn; assay: Test Example 4: foliar treatment, effect on crop; c: corn; conditions: treatment dosage 315 g/ha
How it was run: as §4

[34] = system: soybean; assay: Test Example 4: foliar treatment, effect on crop; d: soybean; conditions: treatment dosage 315 g/ha
How it was run: as §4

[35] = system: wheat; assay: Test Example 4: foliar treatment, effect on crop; e: wheat; conditions: treatment dosage 315 g/ha
How it was run: as §4

[36] = system: beet; assay: Test Example 4: foliar treatment, effect on crop; f: beet; conditions: treatment dosage 315 g/ha
How it was run: as §4

[37] = system: oval-leafed pondweed; assay: Test Example 2: weedkilling efficacy, growth period weed treatment in the submerged state; C: oval-leafed pondweed; conditions: treatment dosage 252 g/ha
How it was run: as §2

[38] = system: beet; assay: Test Example 3: soil treatment, effect on crop; f: beet; conditions: treatment dosage 315 g/ha
How it was run: as §3

SMILES | A (barnyard grass) weedkilling efficacy grade [1] | B (bulrush) weedkilling efficacy grade [2] | C (oval-leafed pondweed) weedkilling efficacy grade [3] | a (transplanted rice) effect on crop grade [4] | A (barnyard grass) weedkilling efficacy grade [5] | B (bulrush) weedkilling efficacy grade [6] | D (crabgrass) weedkilling efficacy grade [7] | E (green foxtail) weedkilling efficacy grade [8] | G (wild oat) weedkilling efficacy grade [9] | H (black-grass) weedkilling efficacy grade [10] | I (Italian ryegrass) weedkilling efficacy grade [11] | K (Indian mallow) weedkilling efficacy grade [12] | L (redroot pigweed) weedkilling efficacy grade [13] | M (fig-leafed goosefoot) weedkilling efficacy grade [14] | N (chickweed) weedkilling efficacy grade [15] | b (directly sown rice) effect on crop grade [17] | c (corn) effect on crop grade [18] | d (soybean) effect on crop grade [19] | e (wheat) effect on crop grade [20] | D (crabgrass) weedkilling efficacy grade [21] | further results
CC1=C(c2ccccc2)C(=O)N(C(C)(C)C(=O)Nc2cc(Cl)nc(Cl)c2)CO1 [B-4-05] | 5 (weed kill ratio 90% or more, (practically complete withering)) | 5 (weed kill ratio 90% or more, (practically complete withering)) | 5 (weed kill ratio 90% or more, (practically complete withering)) | 0 (weed kill ratio 5% or less (practically no effect)) | 4 (weed kill ratio 70% or more, less than 90%) | 5 (weed kill ratio 90% or more, (practically complete withering)) | 5 (weed kill ratio 90% or more, (practically complete withering)) | 5 (weed kill ratio 90% or more, (practically complete withering)) | 5 (weed kill ratio 90% or more, (practically complete withering)) | 5 (weed kill ratio 90% or more, (practically complete withering)) | 5 (weed kill ratio 90% or more, (practically complete withering)) | 3 (weed kill ratio 40% or more, less than 70%) | 4 (weed kill ratio 70% or more, less than 90%) | 4 (weed kill ratio 70% or more, less than 90%) | 3 (weed kill ratio 40% or more, less than 70%) | 5 (weed kill ratio 90% or more, (practically complete withering)) | 0 (weed kill ratio 5% or less (practically no effect)) | 0 (weed kill ratio 5% or less (practically no effect)) | 0 (weed kill ratio 5% or less (practically no effect)) | 5 (weed kill ratio 90% or more, (practically complete withering)) | P (birds-eye speedwell) weedkilling efficacy grade [16]: 5 (weed kill ratio 90% or more, (practically complete withering)); E (green foxtail) weedkilling efficacy grade [22]: 5 (weed kill ratio 90% or more, (practically complete withering)); G (wild oat) weedkilling efficacy grade [23]: 4 (weed kill ratio 70% or more, less than 90%); H (black-grass) weedkilling efficacy grade [24]: 4 (weed kill ratio 70% or more, less than 90%); I (Italian ryegrass) weedkilling efficacy grade [25]: 5 (weed kill ratio 90% or more, (practically complete withering)); K (Indian mallow) weedkilling efficacy grade [26]: 3 (weed kill ratio 40% or more, less than 70%); L (redroot pigweed) weedkilling efficacy grade [27]: 3 (weed kill ratio 40% or more, less than 70%); M (fig-leafed goosefoot) weedkilling efficacy grade [28]: 2 (weed kill ratio 20% or more, less than 40%); N (chickweed) weedkilling efficacy grade [29]: 2 (weed kill ratio 20% or more, less than 40%); O (catchweed) weedkilling efficacy grade [30]: 1 (weed kill ratio 5% or more, less than 20%); P (birds-eye speedwell) weedkilling efficacy grade [31]: 4 (weed kill ratio 70% or more, less than 90%); b (directly sown rice) effect on crop grade [32]: 5 (weed kill ratio 90% or more, (practically complete withering)); c (corn) effect on crop grade [33]: 3 (weed kill ratio 40% or more, less than 70%); d (soybean) effect on crop grade [34]: 3 (weed kill ratio 40% or more, less than 70%); e (wheat) effect on crop grade [35]: 0 (weed kill ratio 5% or less (practically no effect)); f (beet) effect on crop grade [36]: 0 (weed kill ratio 5% or less (practically no effect))
CC1=C(c2ccccc2)C(=O)N(C(C)(C)C(=O)Nc2cc(Cl)cc(Cl)n2)CO1 [B-2-34] | 5 (weed kill ratio 90% or more, (practically complete withering)) | 5 (weed kill ratio 90% or more, (practically complete withering)) | 5 (weed kill ratio 90% or more, (practically complete withering)) | 0 (weed kill ratio 5% or less (practically no effect)) | 5 (weed kill ratio 90% or more, (practically complete withering)) | 5 (weed kill ratio 90% or more, (practically complete withering)) | 5 (weed kill ratio 90% or more, (practically complete withering)) | 5 (weed kill ratio 90% or more, (practically complete withering)) | 5 (weed kill ratio 90% or more, (practically complete withering)) | 5 (weed kill ratio 90% or more, (practically complete withering)) | 5 (weed kill ratio 90% or more, (practically complete withering)) | 5 (weed kill ratio 90% or more, (practically complete withering)) | 5 (weed kill ratio 90% or more, (practically complete withering)) | 4 (weed kill ratio 70% or more, less than 90%) | 5 (weed kill ratio 90% or more, (practically complete withering)) | 5 (weed kill ratio 90% or more, (practically complete withering)) | 2 (weed kill ratio 20% or more, less than 40%) | 1 (weed kill ratio 5% or more, less than 20%) | 1 (weed kill ratio 5% or more, less than 20%) | 5 (weed kill ratio 90% or more, (practically complete withering)) | C (oval-leafed pondweed) weedkilling efficacy grade [37]: 5 (weed kill ratio 90% or more, (practically complete withering)); f (beet) effect on crop grade [38]: 5 (weed kill ratio 90% or more, (practically complete withering)); E (green foxtail) weedkilling efficacy grade [22]: 5 (weed kill ratio 90% or more, (practically complete withering)); G (wild oat) weedkilling efficacy grade [23]: 5 (weed kill ratio 90% or more, (practically complete withering)); H (black-grass) weedkilling efficacy grade [24]: 5 (weed kill ratio 90% or more, (practically complete withering)); I (Italian ryegrass) weedkilling efficacy grade [25]: 5 (weed kill ratio 90% or more, (practically complete withering)); K (Indian mallow) weedkilling efficacy grade [26]: 5 (weed kill ratio 90% or more, (practically complete withering)); L (redroot pigweed) weedkilling efficacy grade [27]: 4 (weed kill ratio 70% or more, less than 90%); M (fig-leafed goosefoot) weedkilling efficacy grade [28]: 3 (weed kill ratio 40% or more, less than 70%); N (chickweed) weedkilling efficacy grade [29]: 3 (weed kill ratio 40% or more, less than 70%); O (catchweed) weedkilling efficacy grade [30]: 0 (weed kill ratio 5% or less (practically no effect)); P (birds-eye speedwell) weedkilling efficacy grade [31]: 3 (weed kill ratio 40% or more, less than 70%); b (directly sown rice) effect on crop grade [32]: 5 (weed kill ratio 90% or more, (practically complete withering)); c (corn) effect on crop grade [33]: 3 (weed kill ratio 40% or more, less than 70%); d (soybean) effect on crop grade [34]: 5 (weed kill ratio 90% or more, (practically complete withering)); e (wheat) effect on crop grade [35]: 1 (weed kill ratio 5% or more, less than 20%); f (beet) effect on crop grade [36]: 4 (weed kill ratio 70% or more, less than 90%)

— US9738634B2, “Heterocyclic amide compound and herbicide” (SYNGENTA PARTICIPATIONS AG, priority 2013, dated 2017)
